Measurements as given in patent US20260216109A1, “TREATMENT OF SKIN DISORDERS WITH SHORT CHAIN FATTY ACIDS” (Temple University-Of The Commonwealth System of Higher …, priority 2023, published 2026).

What was measured:
Type in all cases: cell-based, human
[1] = tested on: IL-17A; test: Multiplex (MSD V-PLEX) cytokine release, InflammaSkin: IL-17A; details: Day 7 supernatant, 0.05% Betamethasone topical, vs untreated InflammaSkin
Experimental: (§1) A total of 16 biopsies of 15 mm diameter were produced from a single donor. Two NativeSkin® models with 12/15 mm silicon rings were produced from the biopsies according to standard procedures in place, and cultured under cell culture conditions (37° C., 5% CO2, max. humidity) for 7 days with 2 mL of standard NativeSkin® medium renewed every day. Fourteen PSO-InflammaSkin® models with 12/15 mm silicon rings were produced by inducing in situ activation and Th17/Th1 polarization of skin resident T cells with a proprietary cocktail, and cultured under cell culture conditions (37° C., 5% CO2, max. humidity) for 7 days with 2 mL of PSO-InflammaSkin® culture medium renewed every day.
(§2) From Day 1 to Day 6, models were systemically treated with 1 μM Otezla or Short Chain Fatty Acids (SCFAs), or topically treated with positive control 0.05% Betamethasone
(§3) In these experiments, the SCFAs administered were 45 μg/mL of Ca-propionate and 1 mM mixture of salts (Ca-butyrate and Mg-butyrate).
At Day 7, supernatants were collected and stored at −80° C. and skin models of all conditions were carefully unmolded. […]
Human pro-inflammatory cytokines released in the supernatant were quantified using the V-PLEX Human IL-17A Kit (MesoScale Discovery, reference: K151RFD-1) and V-PLEX Human TNFα Kit (MesoScale Discovery, reference: K151QWD-1). […]
(§4) Human pro-inflammatory cytokines released in the supernatant were quantified using the V-PLEX Human IL-17A Kit (MesoScale Discovery, reference: K151RFD-1) and V-PLEX Human custom Pro-inflammatory. […]
(§5) Samples were diluted four times for plate 2 and two times for plate 1. Samples and standards were assessed in duplicate. Plates were read on MesoScale Discovery Quickpleax SQ 120 plate reader and values expressed in pg/mL.
(§6) A statistical analysis was performed. […] First, the distribution's normality of the two compared group was assessed. […] If the two distributions were normal, the homogeneity of variances was assessed using a Fisher test on the variances. […]

[2] = tested on: IL-31; test: Multiplex (MSD V-PLEX) cytokine release, InflammaSkin: IL-31; details: Example 2; Day 7 supernatant; 1 μM Otezla or SCFA systemic; vs untreated InflammaSkin
Experimental: A total of 16 biopsies of 15 mm diameter were produced from a single donor. Two NativeSkin® models with 12/15 mm silicon rings were produced from the biopsies according to standard procedures in place, and cultured under cell culture conditions (37° C., 5% CO2, max. humidity) for 7 days with 2 mL of standard NativeSkin® medium renewed every day. Fourteen PSO-InflammaSkin® models with 12/15 mm silicon rings were produced by inducing in situ activation and Th17/Th1 polarization of skin resident T cells with a proprietary cocktail, and cultured under cell culture conditions (37° C., 5% CO2, max. humidity) for 7 days with 2 mL of PSO-InflammaSkin® culture medium renewed every day. […]
as §4, §5, §6

[3] = tested on: InflammaSkin® models; test: Hematoxylin & Eosin (H&E) staining of InflammaSkin models (skin structure, integrity, viability); details: Example 1; Day 7; Day 1-6: 1 μM Otezla or SCFA (45 μg/mL Ca-propionate + 1 mM Ca-/Mg-butyrate) systemic, 0.05% Betamethasone topical; vs untreated InflammaSkin
Experimental: as §1, §2
In these experiments, the SCFAs administered were 45 μg/mL of Ca-propionate and 1 mM mixture of salts (Ca-butyrate and Mg-butyrate). […]
Skin structure and integrity and viability were evaluated using Hematoxylin & Eosin (H&E) staining following treatment with Betamethasone, […] Otezla® (Apremilast), or SCFAs comprising butyric acid and propionic acid. […] Therefore, the donor sample was determined to remain viable over the course of the culture in the absence of inflammation/T-cell activation.

[4] = tested on: TNF-α; test: Multiplex (MSD V-PLEX) cytokine release, InflammaSkin: TNF-α
Experimental: as §1, §2, §3
At Day 7, supernatants were collected and stored at −80° C. and skin models of all conditions were carefully unmolded. Skin biopsies were re-punched to eliminate the area under the silicon ring, fixed in 10% buffered formalin and processed for paraffin wax embedding.
Human pro-inflammatory cytokines released in the supernatant were quantified using the V-PLEX Human IL-17A Kit (MesoScale Discovery, reference: K151RFD-1) and V-PLEX Human TNFα Kit (MesoScale Discovery, reference: K151QWD-1). Values are expressed in pg/mL. For each condition, single values, mean and SEM were plotted using GraphPad Prism. Statistical analysis was performed using a One Way ANOVA test.
PSO-InflammaSkin® models were cultured and treated as described in Example 1. In these experiments, the SCFAs administered were 45 μg/mL of Ca-propionate and 1 mM mixture of salts (Ca-butyrate and Mg-butyrate).
Human pro-inflammatory cytokines released in the supernatant were quantified using the V-PLEX Human IL-17A Kit (MesoScale Discovery, reference: K151RFD-1) and V-PLEX Human custom Pro-inflammatory. Plate 1 comprised Proinflammatory Panel 1 (human) kit reference K15049 (panel IFN-γ and TNF-α). Plate 2 comprised TH17 Panel 1 (human) kit reference K15049 (panel IL-17A Gen B, IL-21, IL-22, IL-23, IL-27, IL-31, MIP-3α).
as §5
A statistical analysis was performed. Each condition was compared to the untreated InflammaSkin® condition. First, the distribution's normality of the two compared group was assessed. […] If the two distributions were normal, the homogeneity of variances was assessed using a Fisher test on the variances. […]

CCOc1cc([C@@H](CS(C)(=O)=O)N2C(=O)c3cccc(NC(C)=O)c3C2=O)ccc1OC [Otezla, Apremilast]
IL-17A levels decreased by ([1]; Example 1, 1 μM Otezla or SCFA (45 μg/mL Ca-propionate + 1 mM Ca-/Mg-butyrate) systemic): about 95%
IL-17A secretion ([1]; Example 2, 1 μM Otezla or SCFA systemic): significantly reduced
IL-31 secretion [2]: reduced IL-31 (FIG. 10 and FIG. 17), but it was not significantly different from untreated InflammaSkin® models
H&E: incidence of pyknosis, vacuolization and epidermal/dermal separation [3]: reduce the incidence of pyknosis, vacuolization and epidermal/dermal separation
increase of the release of TNF-α ([4]; Example 1, Day 7 supernatant, 1 μM Otezla systemic, vs untreated InflammaSkin): ~2 fold
TNFα secretion ([4]; Example 2, Day 7 supernatant, 1 μM Otezla or SCFA systemic, 0.05% Betamethasone topical, vs untreated InflammaSkin): significantly increased
TNFα level (by MSD) ([4]; Example 2, Otezla-treated InflammaSkin (untreated about 1 μg/mL)): about 2 μg/mL
